From US8658646B2, “Pyrrolopyrazine kinase inhibitors” (Hoffmann-LaRoche Inc., priority 2011, dated 2014)

Experiments:
[1] = target: T1, recombinant human SYK360-635 (Homo sapiens, UniProt P43405); assay: Determination of IC50 of Spleen Tyrosine Kinase (SYK) inhibition, 33P ATP filtration assay; format: biochemical; settings: SYK aa 360-635 0.5 nM; ATP 20 μM, peptide 5 μM, 0.1% BSA; read-out: SYK_ENZYME_FILTRATION/v1, BSA
T1 construct: made in house

[2] = target: T2, JAK3: Recombinant human kinase domain (Homo sapiens, UniProt P52333); assay: Determination of IC50 of Janus Kinase (JAK) inhibition, radioactive end-point 33P-ATP assay, JAK3; format: biochemical; settings: ATP 1.5 uM, peptide 50 uM, 20 minutes, read-out: JAK3-INHIB-DR/v1~NO ADDITIVE~Enzyme_Conc = 100
T2 construct: JAK3: Recombinant human kinase domain from Millipore (Cat #14-629) or prepared; purchased Millipore 14-629
T2 sequence (P52333 822-1111 limits assumed): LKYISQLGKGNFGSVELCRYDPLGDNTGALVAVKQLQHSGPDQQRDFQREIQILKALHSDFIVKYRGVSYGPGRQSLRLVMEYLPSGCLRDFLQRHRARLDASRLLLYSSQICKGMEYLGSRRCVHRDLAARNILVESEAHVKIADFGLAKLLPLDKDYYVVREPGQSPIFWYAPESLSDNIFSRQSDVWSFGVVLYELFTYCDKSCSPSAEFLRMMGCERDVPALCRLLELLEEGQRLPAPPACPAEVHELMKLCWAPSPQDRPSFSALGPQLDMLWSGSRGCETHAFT

| IC50 [1] [nM] | IC50 [2] [nM] | SMILES |
| --- | --- | --- |
| 46 | 157 | CN(C)CCn1nc(-c2cnc3[nH]cc(C(=O)NC(C)(C)C)c3n2)c2ccc(F)cc21 [Example I-313, 2-[1-(2-Dimethylamino-ethyl)-6-fluoro-1H-indazol-3-yl]-5H-pyrrolo[2,3-b]pyrazine-7-carboxylic acid tert-butylamide] |
| 9.2 | 20.6 | CC(NC(=O)c1c[nH]c2ncc(-c3nn(C)c4cc(F)ccc34)nc12)[C@H]1C[C@H](O)C1 (stereo partly drawn) [Example I-75, 2-(6-Fluoro-1-methyl-1H-indazol-3-yl)-5H-pyrrolo[2,3-b]pyrazine-7-carboxylic acid [1-(trans-3-hydroxy-cyclobutyl)-ethyl]-amide] |
| 75 | 197 | Cn1nc(-c2cnc3[nH]cc(C(=O)N[C@@H]4CCC[C@H](C#N)C4)c3n2)c2ccc(Cl)cc21 (relative stereo) [Example I-167, 2-(6-Chloro-1-methyl-1H-indazol-3-yl)-5H-pyrrolo[2,3-b]pyrazine-7-carboxylic acid (cis-3-cyano-cyclohexyl)-amide] |
| 704 | 80.9 | COC[C@@H](NC(=O)c1c[nH]c2ncc(-c3nn(C)c4cc(F)ccc34)nc12)[C@@H](C)O [Example I-177, 2-(6-Fluoro-1-methyl-1H-indazol-3-yl)-5H-pyrrolo[2,3-b]pyrazine-7-carboxylic acid ((1R,2R)-2-hydroxy-1-methoxymethyl-propyl)-amide] |
| 994 | 10.2 | COC[C@H](C)NC(=O)c1c[nH]c2ncc(-c3ncn4cc(F)cc(F)c34)nc12 [Example I-40, 2-(6,8-Difluoro-imidazo[1,5-a]pyridin-1-yl)-5H-pyrrolo[2,3-b]pyradine-7-carboxylic acid ((S)-2-methoxy-1-methyl-ethyl)-amide] |
| 186 | 13.3 | CC(C)NC(=O)c1c[nH]c2ncc(-c3nn(CCN(C)C)c4cc(Cl)cc(F)c34)nc12 [Example I-128, 2-[6-Chloro-1-(2-dimethylamino-ethyl)-4-fluoro-1H-indazol-3-yl]-5H-pyrrolo[2,3-b]pyrazine-7-carboxylic acid isopropylamide] |
| 37.1 | 13.1 | Cn1nc(-c2cnc3[nH]cc(C(=O)N[C@H]4CC[C@H](O)CC4)c3n2)c2ccc(Cl)cc21 [Example I-144, 2-(6-Chloro-1-methyl-1H-indazol-3-yl)-5H-pyrrolo[2,3-b]pyrazine-7-carboxylic acid (trans-4-hydroxy-cyclohexyl)-amide] |
| 12.1 | 12.8 | Cn1nc(-c2cnc3[nH]cc(C(=O)NCC(C)(C)CO)c3n2)c2ccc(F)cc21 [Example I-114, 2-(6-Fluoro-1-methyl-1H-indazol-3-yl)-5H-pyrrolo[2,3-b]pyrazine-7-carboxylic acid (3-hydroxy-2,2-dimethyl-propyl)-amide] |
| 35.3 | 31.4 | CC(C)NC(=O)c1c[nH]c2ncc(-c3nn(Cc4ccon4)c4cc(Cl)ccc34)nc12 [Example I-310, 2-(6-Chloro-1-isoxazol-3-ylmethyl-1H-indazol-3-yl)-5H-pyrrolo[2,3-b]pyrazine-7-carboxylic acid isopropylamide] |
| 6.4 | 39.2 | Cn1nc(-c2cnc3[nH]cc(C(=O)NC4CCC(N)C4)c3n2)c2ccc(Cl)cc21 (stereo not shown) [Example I-37, 2-(6-Chloro-1-methyl-1H-indazol-3-yl)-5H-pyrrolo[2,3-b]pyrazine-7-carboxylic acid (3-amino-cyclopentyl)-amide] |
| 11 | 0.535 | C[C@H](NC(=O)c1c[nH]c2ncc(-c3nn(C)c4cc(F)ccc34)nc12)C(C)(C)C [Example I-45, 2-(6-Fluoro-1-methyl-1H-indazol-3-yl)-5H-pyrrolo[2,3-b]pyrazine-7-carboxylic acid ((S)-1,2,2-trimethyl-propyl)-amide] |
